Data from patent publication EP4578856A1, “HETEROCYCLIC COMPOUND” (Ubience Inc., priority 2022, dated 2024).

Molecular target: ROCK2 protein (Homo sapiens, UniProt O75116)
Test: Degradation inducing activity of ROCK2 protein in HUVEC cells, Western blotting (Simple Western JESS)
Assay type: cell-based
Design: endogenous in cells; host or cells: HUVEC (ATCC CRL-1730)
Conditions: HUVEC, 24 h; for inhibition at 1 µM: degradation rate at 1 µM; for inhibition at 10 µM: degradation rate at 10 µM
In short: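 HUVEC cells treated 24 h with compound at 10 µM or 1 µM, then lysed; ROCK2 quantified by capillary Western (Simple Western JESS) using rabbit mAb D1B1, normalized to total loaded protein. Degradation rate (%) calculated relative to DMSO control set at 100%, binned A ≥75%, B 50–75%, C 25–50%, D <25%.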

Sequence of ROCK2 protein (O75116 whole entry): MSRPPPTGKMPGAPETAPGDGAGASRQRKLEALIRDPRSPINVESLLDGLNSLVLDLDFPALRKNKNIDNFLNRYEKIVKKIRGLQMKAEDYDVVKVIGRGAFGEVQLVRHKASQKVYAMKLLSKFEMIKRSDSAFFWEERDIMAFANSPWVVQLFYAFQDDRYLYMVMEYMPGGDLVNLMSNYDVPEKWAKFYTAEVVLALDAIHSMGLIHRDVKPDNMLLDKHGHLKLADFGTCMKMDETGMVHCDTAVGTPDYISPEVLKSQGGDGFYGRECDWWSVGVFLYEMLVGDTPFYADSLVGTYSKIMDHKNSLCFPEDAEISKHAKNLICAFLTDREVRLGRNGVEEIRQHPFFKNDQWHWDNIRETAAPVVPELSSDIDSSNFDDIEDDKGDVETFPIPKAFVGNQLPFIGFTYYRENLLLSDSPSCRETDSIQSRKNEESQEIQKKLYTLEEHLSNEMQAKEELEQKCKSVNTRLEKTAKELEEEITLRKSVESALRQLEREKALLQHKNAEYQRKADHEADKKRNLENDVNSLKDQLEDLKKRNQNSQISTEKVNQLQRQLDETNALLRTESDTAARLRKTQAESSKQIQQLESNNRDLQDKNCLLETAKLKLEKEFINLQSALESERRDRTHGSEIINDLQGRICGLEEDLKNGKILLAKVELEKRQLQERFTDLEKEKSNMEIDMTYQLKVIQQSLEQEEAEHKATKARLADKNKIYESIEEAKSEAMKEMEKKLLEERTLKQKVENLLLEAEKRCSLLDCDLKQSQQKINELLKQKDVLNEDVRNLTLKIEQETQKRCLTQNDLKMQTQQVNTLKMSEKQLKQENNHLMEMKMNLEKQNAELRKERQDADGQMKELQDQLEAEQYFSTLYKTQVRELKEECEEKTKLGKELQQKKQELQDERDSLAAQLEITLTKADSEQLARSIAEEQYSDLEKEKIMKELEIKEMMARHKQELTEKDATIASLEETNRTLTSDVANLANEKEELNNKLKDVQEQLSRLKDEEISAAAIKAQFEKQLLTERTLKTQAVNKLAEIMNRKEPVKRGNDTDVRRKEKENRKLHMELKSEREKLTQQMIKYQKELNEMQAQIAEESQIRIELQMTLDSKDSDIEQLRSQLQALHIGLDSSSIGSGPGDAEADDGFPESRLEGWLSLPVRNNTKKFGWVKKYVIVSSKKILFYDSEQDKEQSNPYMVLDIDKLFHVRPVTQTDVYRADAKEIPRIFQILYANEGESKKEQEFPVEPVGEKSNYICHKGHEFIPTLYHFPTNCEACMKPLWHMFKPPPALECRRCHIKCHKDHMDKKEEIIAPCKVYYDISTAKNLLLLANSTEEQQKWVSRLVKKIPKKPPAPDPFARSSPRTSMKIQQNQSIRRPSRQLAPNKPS

SMILES	inhibition at 1 µM [%]	inhibition at 10 µM [%]
COC[C@H]1CN[C@H](C)CN1CC(=O)N1CC(C)(C)c2ncc(Cc3ccccc3OCCOCCOCCOCCOCCOCCNC[C@@H](C(=O)Nc3ccc4cnccc4c3)c3ccccc3)cc21 [Example 82, (S)-N-(Isoquinolin-6-yl)-1-(2-((1-(2-((2R,5R)-2-(methoxymethyl)-5-methylpiperazin-1-yl)acetyl)-3,3-dimethyl-2,3-dihydro-1H-pyrrolo[3,2-b]pyridin-6-yl)methyl)phenoxy)-20-phenyl-3,6,9,12,15-pentaoxa-18-azahenicosan-21-amide]	25 to 50	≥ 75
COC[C@H]1CN[C@H](C)CN1CC(=O)N1CC(C)(C)c2ncc(Cc3cccc(OCCOCCOCCOCCOCCNC[C@@H](C(=O)Nc4ccc5cnccc5c4)c4ccccc4)c3)cc21 [Example 60, (S)-N-(Isoquinolin-6-yl)-1-(3-((1-(2-((2R,5R)-2-(methoxymethyl)-5-methylpiperazin-1-yl)acetyl)-3,3-dimethyl-2,3-dihydro-1H-pyrrolo[3,2-b]pyridin-6-yl)methyl)phenoxy)-17-phenyl-3,6,9,12-tetraoxa-15-azaoctadecan-18-amide]	25 to 50	≥ 75
COC[C@H]1CN[C@H](C)CN1CC(=O)N1CC(C)(C)c2nc(CN(C)CCOCCOCCOCCOCCOCCOCCOCCNC[C@@H](C(=O)Nc3ccc4cnccc4c3)c3ccccc3)c(Cc3ccc(F)cc3)cc21 [Example 42, (S)-1-(6-(4-Fluorobenzyl)-1-(2-((2R,5R)-2-(methoxymethyl)-5-methylpiperazin-1-yl)acetyl)-3,3-dimethyl-2,3-dihydro-1H-pyrrolo[3,2-b]pyridin-5-yl)-N-(isoquinolin-6-yl)-2-methyl-28-phenyl-5,8,11,14,17,20,23-heptaoxa-2,26-diazanonacosan-29-amide]	50 to 75	≥ 75
COC[C@H]1CN[C@H](C)CN1CC(=O)N1CC(C)(C)c2ncc(Cc3cccc(OCCOCCOCCOCCOCCOCCOCCNC[C@@H](C(=O)Nc4ccc5cnccc5c4)c4ccccc4)c3)cc21 [Example 62, (S)-N-(Isoquinolin-6-yl)-1-(3-((1-(2-((2R,5R)-2-(methoxymethyl)-5-methylpiperazin-1-yl)acetyl)-3,3-dimethyl-2,3-dihydro-1H-pyrrolo[3,2-b]pyridin-6-yl)methyl)phenoxy)-23-phenyl-3,6,9,12,15,18-hexaoxa-21-azatetracosan-24-amide]	25 to 50	≥ 75
C[C@@H]1CN(CC(=O)N2CC(C)(C)c3ncc(Cc4ccc(F)cc4)cc32)[C@@H](CN(C)CCOCCOCCOCCOCCOCCN[C@H](C)c2ccc(C(=O)Nc3ccncc3)cc2)CN1 [Example 5, 4-((R)-1-((2R,5R)-1-(2-(6-(4-Fluorobenzyl)-3,3-dimethyl-2,3-dihydro-1H-pyrrolo[3,2-b]pyridin-1-yl)-2-oxoethyl)-5-methylpiperazin-2-yl)-2-methyl-5,8,11,14,17-pentaoxa-2,20-diazadocosan-21-yl)-N-(pyridin-4-yl)benzamide]	25 to 50	< 25
COC[C@H]1CN[C@H](C)CN1CC(=O)N1CC(C)(C)c2ncc(Cc3cccc(OCCOCCOCCOCCN[C@H](Cc4cccc(F)c4)C(=O)Nc4ccc(-c5ccncc5)cc4)c3)cc21 [Example 52, (R)-2-(3-Fluorobenzyl)-14-(3-((1-(2-((2R,5R)-2-(methoxymethyl)-5-methylpiperazin-1-yl)acetyl)-3,3-dimethyl-2,3-dihydro-1H-pyrrolo[3,2-b]pyridin-6-yl)methyl)phenoxy)-N-(4-(pyridin-4-yl)phenyl)-6,9,12-trioxa-3-azatetradecanamide]	25 to 50	50 to 75
C[C@@H]1CN(CC(=O)N2CC(C)(C)c3ncc(Cc4ccc(F)cc4)cc32)[C@@H](CN(C)CCOCCOCCOCCN[C@H](Cc2cccc(F)c2)C(=O)Nc2ccc(-c3ccncc3)cc2)CN1 [Example 10, (R)-15-(3-Fluorobenzyl)-1-((2R,5R)-1-(2-(6-(4-fluorobenzyl)-3,3-dimethyl-2,3-dihydro-1H-pyrrolo[3,2-b]pyridin-1-yl)-2-oxoethyl)-5-methylpiperazin-2-yl)-2-methyl-N-(4-(pyridin-4-yl)phenyl)-5,8,11-trioxa-2,14-diazahexadecan-16-amide]	25 to 50	≥ 75
COC[C@H]1CN[C@H](C)CN1CC(=O)N1CC(C)(C)c2ncc(Cc3ccccc3OCCOCCOCCNC[C@@H](C(=O)Nc3ccc4cnccc4c3)c3ccccc3)cc21 [Example 79, (S)-N-(Isoquinolin-6-yl)-3-((2-(2-(2-(2-((1-(2-((2R,5R)-2-(methoxymethyl)-5-methylpiperazin-1-yl)acetyl)-3,3-dimethyl-2,3-dihydro-1H-pyrrolo[3,2-b]pyridin-6-yl)methyl)phenoxy)ethoxy)ethoxy)ethyl)amino)-2-phenylpropanamide]	≥ 75	≥ 75
COC[C@H]1CN[C@H](C)CN1CC(=O)N1CC(C)(C)c2nc(CN(C)CCOCCN[C@H](C)c3ccc(C(=O)Nc4ccncc4)cc3)c(Cc3ccc(F)cc3)cc21 [Example 22, 4-((R)-1-((2-(2-(((6-(4-Fluorobenzyl)-1-(2-((2R,5R)-2-(methoxymethyl)-5-methylpiperazin-1-yl)acetyl)-3,3-dimethyl-2,3-dihydro-1H-pyrrolo[3,2-b]pyridin-5-yl)methyl)(methyl)amino)ethoxy)ethyl)amino)ethyl)-N-(pyridin-4-yl)benzamide]	< 25	≥ 75
COC[C@H]1CN[C@H](C)CN1CC(=O)N1CC(C)(C)c2nc(CN(C)CCOCCOCCNC[C@@H](C(=O)Nc3ccc4cnccc4c3)c3ccccc3)c(Cc3ccc(F)cc3)cc21 [Example 37, (S)-1-(6-(4-Fluorobenzyl)-1-(2-((2R,5R)-2-(methoxymethyl)-5-methylpiperazin-1-yl)acetyl)-3,3-dimethyl-2,3-dihydro-1H-pyrrolo[3,2-b]pyridin-5-yl)-N-(isoquinolin-6-yl)-2-methyl-13-phenyl-5,8-dioxa-2,11-diazatetradecan-14-amide]	< 25	≥ 75
COC[C@H]1CN[C@H](C)CN1CC(=O)N1CC(C)(C)c2ncc(Cc3ccccc3OCCOCCOCCOCCOCCOCCOCCN[C@H](C)c3ccc(C(=O)Nc4ccncc4)cc3)cc21 [Example 69, 4-((R)-23-(2-((1-(2-((2R,5R)-2-(Methoxymethyl)-5-methylpiperazin-1-yl)acetyl)-3,3-dimethyl-2,3-dihydro-1H-pyrrolo[3,2-b]pyridin-6-yl)methyl)phenoxy)-6,9,12,15,18,21-hexaoxa-3-azatricosan-2-yl)-N-(pyridin-4-yl)benzamide]	≥ 75	≥ 75
COC[C@H]1CN[C@H](C)CN1CC(=O)N1CC(C)(C)c2nc(CN(C)CCOCCOCCOCCOCCOCCOCCN[C@H](Cc3cccc(F)c3)C(=O)Nc3ccc(-c4ccncc4)cc3)c(Cc3ccc(F)cc3)cc21 [Example 34, (R)-24-(3-Fluorobenzyl)-1-(6-(4-fluorobenzyl)-1-(2-((2R,5R)-2-(methoxymethyl)-5-methylpiperazin-1-yl)acetyl)-3,3-dimethyl-2,3-dihydro-1H-pyrrolo[3,2-b]pyridin-5-yl)-2-methyl-N-(4-(pyridin-4-yl)phenyl)-5,8,11,14,17,20-hexaoxa-2,23-diazapentacosan-25-amide]	< 25	≥ 75
COC[C@H]1CN[C@H](C)CN1CC(=O)N1CC(C)(C)c2ncc(Cc3cccc(OCCOCCOCCOCCOCCOCCN[C@H](Cc4cccc(F)c4)C(=O)Nc4ccc(-c5ccncc5)cc4)c3)cc21 [Example 54, (R)-2-(3-Fluorobenzyl)-20-(3-((1-(2-((2R,5R)-2-(methoxymethyl)-5-methylpiperazin-1-yl)acetyl)-3,3-dimethyl-2,3-dihydro-1H-pyrrolo[3,2-b]pyridin-6-yl)methyl)phenoxy)-N-(4-(pyridin-4-yl)phenyl)-6,9,12,15,18-pentaoxa-3-azaicosanamide]	≥ 75	25 to 50
C[C@@H]1CN(CC(=O)N2CC(C)(C)c3ncc(Cc4ccc(F)cc4)cc32)[C@@H](CN(C)CCOCCN[C@H](Cc2cccc(F)c2)C(=O)Nc2ccc(-c3ccncc3)cc2)CN1 [Example 8, (R)-2-((2-(2-((((2R,5R)-1-(2-(6-(4-Fluorobenzyl)-3,3-dimethyl-2,3-dihydro-1H-pyrrolo[3,2-b]pyridin-1-yl)-2-oxoethyl)-5-methylpiperazin-2-yl)methyl) (methyl)amino)ethoxy)ethyl)amino)-3-(3-fluorophenyl)-N-(4-(pyridin-4-yl)phenyl)propanamide]	25 to 50	≥ 75
COC[C@H]1CN[C@H](C)CN1CC(=O)N1CC(C)(C)c2ncc(Cc3cccc(OCCOCCOCCOCCOCCOCCNC[C@@H](C(=O)Nc4ccc5cnccc5c4)c4ccccc4)c3)cc21 [Example 61, (S)-N-(Isoquinolin-6-yl)-1-(3-((1-(2-((2R,5R)-2-(methoxymethyl)-5-methylpiperazin-1-yl)acetyl)-3,3-dimethyl-2,3-dihydro-1H-pyrrolo[3,2-b]pyridin-6-yl)methyl)phenoxy)-20-phenyl-3,6,9,12,15-pentaoxa-18-azahenicosan-21-amide]	50 to 75	≥ 75
C[C@@H]1CN(CC(=O)N2CC(C)(C)c3ncc(Cc4ccc(F)cc4)cc32)[C@@H](CN(C)CCOCCOCCOCCOCCNC[C@@H](C(=O)Nc2ccc3cnccc3c2)c2ccccc2)CN1 [Example 18, (S)-1-((2R,5R)-1-(2-(6-(4-Fluorobenzyl)-3,3-dimethyl-2,3-dihydro-1H-pyrrolo[3,2-b]pyridin-1-yl)-2-oxoethyl)-5-methylpiperazin-2-yl)-N-(isoquinolin-6-yl)-2-methyl-19-phenyl-5,8,11,14-tetraoxa-2,17-diazaicosan-20-amide]	≥ 75	≥ 75
